molecular target: T1, human APJ receptor (Homo sapiens, UniProt P35414); experiment: Intracellular cAMP accumulation assay (APJ hcAMP, HTRF); format: cell-based; details: HEK293 cells stably expressing human APJ; read-out: Human APJ cAMP EC50 Potency range
T1 construct: expressed in transfected cells
T1 sequence (P35414 1-380): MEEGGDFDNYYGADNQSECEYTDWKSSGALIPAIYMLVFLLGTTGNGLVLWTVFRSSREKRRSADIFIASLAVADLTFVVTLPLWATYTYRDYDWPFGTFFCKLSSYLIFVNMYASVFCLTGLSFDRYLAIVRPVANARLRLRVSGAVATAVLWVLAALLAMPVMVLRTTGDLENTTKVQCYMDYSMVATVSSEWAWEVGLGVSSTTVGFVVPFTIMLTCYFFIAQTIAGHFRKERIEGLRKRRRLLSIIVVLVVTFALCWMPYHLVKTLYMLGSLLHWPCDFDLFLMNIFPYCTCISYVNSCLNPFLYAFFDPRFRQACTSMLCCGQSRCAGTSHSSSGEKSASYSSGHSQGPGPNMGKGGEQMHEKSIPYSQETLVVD
Protocol: Intracellular cAMP Accumulation Assay
HEK293 cells stably expressing human APJ receptor were used to assess the activity of compounds. Cultured cells were detached and resuspended in the cAMP Homogeneous Time-Resolved Fluorescence (HTRF) assay buffer (Cisbio cat; #62AM4PEJ). […] Serial dilutions of a compound together with assay buffer containing […] and 2 μM forskolin were added to each well containing 5,000 cells and incubated for 30 minutes at room temperature. Subsequently, cAMP D2 reagent was added in the lysis buffer followed by the EuK antibody (Cisbio; cat #62AM4PEJ) and incubated for 60 min. The fluorescence emission ratio was measured using fluorometer. The intracellular cAMP concentrations (compound-stimulated inhibition of forskolin-mediated cAMP production) were calculated by extrapolation from a standard curve using known cAMP concentrations. The EC50 values were obtained by fitting the data to a sigmoidal concentration-response curve with variable slope.
The EC50 value of each compound is presented at the end of the example description.
The biological activity of the exemplified compounds of this invention determined by the assay described above is shown at the end of each example.

With CCOCc1nc(O)c(C(=O)N2CC[C@H](c3ccccc3)C2)c(O)c1-c1c(OC)cc(F)cc1OC [Example 70] the EC50 was 10 to 100 nM.

same assay, conditions: Table 1; HEK293 cells stably expressing human APJ, forskolin-stimulated cAMP; read-out: APJ cAMP EC50

Compared with CCCCc1nc(O)c(C(=O)N2CCN(Cc3cccc(F)c3)CC2)c(O)c1-c1c(OC)cccc1OC [Example 45, 6-butyl-5-(2,6-dimethoxyphenyl)-3-{4-[(3-fluorophenyl)methyl]piperazine-1-carbonyl}pyridine-2,4-diol], CCCCc1nc(O)c(C(=O)N2CCN(c3cccc(Cl)c3)CC2)c(O)c1-c1c(OC)cccc1OC [Example 58, 6-butyl-3-[4-(3-chlorophenyl)piperazine-1-carbonyl]-5-(2,6-dimethoxyphenyl)pyridine-2,4-diol] is higher in EC50: 0.01 to 10 nM for the first, 10 to 100 nM for the second. The first is the more potent here.

CCCCc1nc(O)c(C(=O)N2CCC(O)(c3ccccc3)CC2)c(O)c1-c1c(OC)cccc1OC [Example 46, 6-butyl-5-(2,6-dimethoxyphenyl)-3-(4-hydroxy-4-phenylpiperidine-1-carbonyl)pyridine-2,4-diol] and CCCCc1nc(O)c(C(=O)N2CCC(O)(c3ccc(Cl)cc3)CC2)c(O)c1-c1c(OC)cccc1OC [Example 47, 6-butyl-3-[4-(4-chlorophenyl)-4-hydroxypiperidine-1-carbonyl]-5-(2,6-dimethoxyphenyl)pyridine-2,4-diol] fall in the same range of EC50: 10 to 100 nM for the first, 10 to 100 nM for the second.

CCCCc1nc(O)c(C(=O)N2CCC(c3nc4ccccc4s3)CC2)c(O)c1-c1c(OC)cccc1OC [Example 48, 3-[4-(1,3-benzothiazol-2-yl)piperidine-1-carbonyl]-6-butyl-5-(2,6-dimethoxyphenyl)pyridine-2,4-diol] and CCCCc1nc(O)c(C(=O)N2CCN(c3nc4ccccc4s3)CC2)c(O)c1-c1c(OC)cccc1OC [Example 54, 3-[4-(1,3-benzothiazol-2-yl)piperazine-1-carbonyl]-6-butyl-5-(2,6-dimethoxyphenyl)pyridine-2,4-diol] fall in the same range of EC50: 10 to 100 nM for the first, 10 to 100 nM for the second.

Compared with CCCCc1nc(O)c(C(=O)N2CCN(c3nsc4ccccc34)CC2)c(O)c1-c1c(OC)cccc1OC [Example 49, 3-[4-(1,2-benzothiazol-3-yl)piperazine-1-carbonyl]-6-butyl-5-(2,6-dimethoxyphenyl)pyridine-2,4-diol], CCCCc1nc(O)c(C(=O)N2CCN(c3ccccc3Cl)CC2)c(O)c1-c1c(OC)cccc1OC [Example 57, 6-butyl-3-[4-(2-chlorophenyl)piperazine-1-carbonyl]-5-(2,6-dimethoxyphenyl)pyridine-2,4-diol] is higher in EC50: 0.01 to 10 nM for the first, 10 to 100 nM for the second.

CCCCc1nc(O)c(C(=O)N2CCC3(CC2)OC(=O)Nc2ccccc23)c(O)c1-c1c(OC)cccc1OC [Example 50, 1′-[6-butyl-5-(2,6-dimethoxyphenyl)-2,4-dihydroxypyridine-3-carbonyl]-1,2-dihydrospiro[3,1-benzoxazine-4,4′-piperidine]-2-one] and CCCCc1nc(O)c(C(=O)N2CCC3(CC2)CC(=O)Nc2ccccc23)c(O)c1-c1c(OC)cccc1OC [Example 66, 1-[6-butyl-5-(2,6-dimethoxyphenyl)-2,4-dihydroxypyridine-3-carbonyl]-2′,3′-dihydro-1′H-spiro[piperidine-4,4′-quinoline]-2′-one] fall in the same range of EC50: 10 to 100 nM for the first, 10 to 100 nM for the second.

CCCCc1nc(O)c(C(=O)N2CCN(c3nc4ccccc4o3)CC2)c(O)c1-c1c(OC)cccc1OC [Example 51, 3-[4-(1,3-benzoxazol-2-yl)piperazine-1-carbonyl]-6-butyl-5-(2,6-dimethoxyphenyl)pyridine-2,4-diol] and CCCCc1nc(O)c(C(=O)N2CCN(c3ccccn3)CC2)c(O)c1-c1c(OC)cccc1OC [Example 59] fall in the same range of EC50: 10 to 100 nM for the first, 10 to 100 nM for the second.

First: CCCCc1nc(O)c(C(=O)N2CCN(c3nnnn3-c3ccccc3)CC2)c(O)c1-c1c(OC)cccc1OC [Example 52, 6-butyl-5-(2,6-dimethoxyphenyl)-3-[4-(1-phenyl-1H-1,2,3,4-tetrazol-5-yl)piperazine-1-carbonyl]pyridine-2,4-diol]
Second: CCCCc1nc(O)c(C(=O)N2CCCN(c3nnnn3-c3ccccc3)CC2)c(O)c1-c1c(OC)cccc1OC [Example 53, 6-butyl-5-(2,6-dimethoxyphenyl)-3-[4-(1-phenyl-1H-1,2,3,4-tetrazol-5-yl)-1,4-diazepane-1-carbonyl]pyridine-2,4-diol]
The EC50 of the first is lower: 0.01 to 10 nM for the first, 10 to 100 nM for the second.

CCCCc1nc(O)c(C(=O)N2CCC(c3c[nH]cn3)CC2)c(O)c1-c1c(OC)cccc1OC [Example 55, 6-butyl-5-(2,6-dimethoxyphenyl)-3-[4-(1H-imidazol-4-yl)piperidine-1-carbonyl]pyridine-2,4-diol] and CCCCc1nc(O)c(C(=O)N2CCC(c3ccccc3)CC2)c(O)c1-c1c(OC)cccc1OC [Example 62, 6-butyl-5-(2,6-dimethoxyphenyl)-3-(4-phenylpiperidine-1-carbonyl)pyridine-2,4-diol] fall in the same range of EC50: 10 to 100 nM for the first, 10 to 100 nM for the second.

First: CCCCc1nc(O)c(C(=O)N2CCC(c3cccc(Cl)c3)CC2)c(O)c1-c1c(OC)cccc1OC [Example 56, 6-butyl-3-[4-(3-chlorophenyl)piperidine-1-carbonyl]-5-(2,6-dimethoxyphenyl)pyridine-2,4-diol]
Second: CCCCc1nc(O)c(C(=O)N2CCC(c3cc(-c4ccccc4)[nH]n3)CC2)c(O)c1-c1c(OC)cccc1OC [Example 67, 6-butyl-5-(2,6-dimethoxyphenyl)-3-[4-(5-phenyl-1H-pyrazol-3-yl)piperidine-1-carbonyl]pyridine-2,4-diol]
The EC50 of the first is lower: 10 to 100 nM for the first, 100 to 300 nM for the second.

CCCCc1nc(O)c(C(=O)N2CCN(c3nc(-c4ccccc4)ns3)CC2)c(O)c1-c1c(OC)cccc1OC [Example 60, 6-butyl-5-(2,6-dimethoxyphenyl)-3-[4-(3-phenyl-1,2,4-thiadiazol-5-yl)piperazine-1-carbonyl]pyridine-2,4-diol] and CCCCc1nc(O)c(C(=O)N2CCN(c3ccc(Cl)cc3)CC2)c(O)c1-c1c(OC)cccc1OC [Example 68, 6-butyl-3-[4-(4-chlorophenyl)piperazine-1-carbonyl]-5-(2,6-dimethoxyphenyl)pyridine-2,4-diol] fall in the same range of EC50: 10 to 100 nM for the first, 10 to 100 nM for the second.

CCCCc1nc(O)c(C(=O)N2CCC(N3CCCC3)CC2)c(O)c1-c1c(OC)cccc1OC [Example 61, 6-butyl-5-(2,6-dimethoxyphenyl)-3-[4-(pyrrolidin-1-yl)piperidine-1-carbonyl]pyridine-2,4-diol] and CCCCc1nc(O)c(C(=O)N2CCN(C3CCCCC3)CC2)c(O)c1-c1c(OC)cccc1OC [Example 63, 6-butyl-3-(4-cyclohexylpiperazine-1-carbonyl)-5-(2,6-dimethoxyphenyl)pyridine-2,4-diol] fall in the same range of EC50: 10 to 100 nM for the first, 10 to 100 nM for the second.

CCCCc1nc(O)c(C(=O)N2CCC3(CC2)OCc2ccccc23)c(O)c1-c1c(OC)cccc1OC [Example 64, 6-butyl-5-(2,6-dimethoxyphenyl)-3-({3H-spiro[2-benzofuran-1,4′-piperidine]-1′-yl}carbonyl)pyridine-2,4-diol] and CCCCc1nc(O)c(C(=O)N2CCC(c3noc4cc(F)ccc34)CC2)c(O)c1-c1c(OC)cccc1OC [Example 65, 6-butyl-5-(2,6-dimethoxyphenyl)-3-[4-(6-fluoro-1,2-benzoxazol-3-yl)piperidine-1-carbonyl]pyridine-2,4-diol] fall in the same range of EC50: 10 to 100 nM for the first, 10 to 100 nM for the second.

CCCCc1nc(O)c(C(=O)N2CCC(c3nc(-c4cccnc4)no3)CC2)c(O)c1-c1c(OC)cccc1OC [Example 69, 6-butyl-5-(2,6-dimethoxyphenyl)-3-{4-[3-(pyridin-3-yl)-1,2,4-oxadiazol-5-yl]piperidine-1-carbonyl}pyridine-2,4-idiol] was tested, and the EC50 was 10 to 100 nM.

same assay, conditions: Table 3; HEK293 cells stably expressing human APJ, forskolin-stimulated cAMP; read-out: APJ cAMP EC50

CCCCc1nc(O)c(C(=O)N2CCC(c3ccc(Cl)cn3)C2)c(O)c1-c1c(OC)cccc1OC (stereo not drawn) [Example 75, 6-butyl-3-[3-(5-chloropyridin-2-yl)pyrrolidine-1-carbonyl]-5-(2,6-dimethoxyphenyl)pyridine-2,4-diol] and CCOCc1nc(O)c(C(=O)N2CCC(c3ccc(Cl)cn3)C2)c(O)c1-c1c(OC)cccc1OC (stereo not drawn) [Example 76, 3-[3-(5-chloropyridin-2-yl)pyrrolidine-1-carbonyl]-5-(2,6-dimethoxyphenyl)-6-(ethoxymethyl)pyridine-2,4-diol] fall in the same range of EC50: 0.01 to 10 nM for the first, 0.01 to 10 nM for the second.

CCOCc1nc(O)c(C(=O)N2CCC(c3ccc(Cl)cn3)C2)c(O)c1-c1c(OC)cccc1OC (stereo not drawn) [Example 77, 3-[3-(5-chloropyridin-2-yl)pyrrolidine-1-carbonyl]-5-(2,6-dimethoxyphenyl)-6-(ethoxymethyl)pyridine-2,4-diol] and CCCCc1nc(O)c(C(=O)N2CCC(c3ncccc3F)C2)c(O)c1-c1c(OC)cccc1OC (stereo not drawn) [Example 78, 6-butyl-5-(2,6-dimethoxyphenyl)-3-[3-(3-fluoropyridin-2-yl)pyrrolidine-1-carbonyl]pyridine-2,4-diol] fall in the same range of EC50: 0.01 to 10 nM for the first, 0.01 to 10 nM for the second.

Reference: patent US10392347B2, “2,4-dihydroxy-nicotinamides as APJ agonists” (BRISTOL-MYERS SQUIBB COMPANY, priority 2015, dated 2019)
